Data as given in patent US20150315218A1, “SALTS OF PRODRUGS OF PIPERAZINE AND SUBSTITUTED PIPERIDINE ANTIVIRAL AGENTS” (Bristol-Myers Squibb Company, priority 2004, published 2015).
≈ marks a conversion by molar mass, not a printed value. Like-named read-outs stand apart in the source and are kept apart here.

Legend:
[1] = Oral dosing studies of prodrugs Ie and If in rats (Table 47); type: in vivo, rat; conditions: for parent molecule in plasma following PO dosing of prodrug: rats, oral dosing of prodrug Ie or If
Method: Prodrug Ie was dosed orally to rats using methodology similar to that described above for the other prodrugs. […] Prodrug If was dosed orally to rats using methodology similar to that described above for the other prodrugs.

[2] = system: HIV-1 T-tropic strain LAI; assay: Antiviral assay: HIV-1 LAI infection of MT-2 cells, reverse transcriptase readout (EC50, Table 48); type: cell-based; conditions: Human immunodeficiency virus 1, MT2, read-out: EC50-LAI
From the text: The materials and experimental procedures used to assess the anti-HIV activity of the parent compounds which are generated from the prodrugs in vivo are described below:
• The human T cell line MT-2 and PM1 (AIDS Research and Reference Reagent Program, National Institutes of Health) were maintained and propagated in Medium RPMI-1640 (Invitrogen, Carlsbad, Calif.), containing 10% fetal Bovine serum. (FBS, Sigma, St. Louis, Mo.).
• Laboratory strains of HIV-1—the T-tropic strain LAI was obtained through the AIDS Research and Reference Reagent Program, National Institutes of Health. It was amplified in MT-2 cells and titered using a virus yield assay (2). Detection was achieved through use of a reverse transcriptase assay (3), adapted for use with a Scintillation Proximity detection protocol (1) (Amersham Biosciences, Piscataway, N.J.).
• 1. Compounds stocks were prepared by dissolving in DMSO to 30 mM. For dilution plates, compounds were serially diluted 3-fold into DMSO, using 96-well polypropylene plates, so that the concentrations were 100-fold greater than the final assay concentration. For antiviral and cytotoxicity assays, 2 μl was added per well (1% final DMSO concentration). • 2. Compounds were added from dilution plates to 96 well tissue culture plates, containing 100 μl Medium RPMI-1640, containing 10% fetal bovine serum at a concentration of <20 μM. • 3. For antiviral assays, cells were infected at a multiplicity of infection of 0.005. After 1 h at 37° C., infected cells were diluted to 200,000 cells per ml in Medium RPMI-1640, containing 10% fetal bovine serum. 100 μl of this solution was added per well, giving a final volume of 200 μl. • 4. Plates were incubated at 37° C. in a humidified CO2 incubator and harvested after 5 days. • 5. Viral infections were monitored by measuring reverse transcriptase activity in the supernatants of infected wells as described above. The percent inhibition for each compound was calculated by quantifying the readout level in cells infected in the presence of each compound as a percentage of that observed for cells infected in the absence of compound and subtracting such a determined value from 100. • 6. An EC50 provides a method for comparing the antiviral potency of the compounds of this invention. The effective concentration for fifty percent inhibition (EC50) was calculated with the Microsoft Excel Xlfit curve fitting software. For each compound, curves were generated from percent inhibition calculated at 8 different concentrations by using a four paramenter logistic model (model 205).

[3] = Cytotoxicity assay (XTT dye reduction) in MT-2 cells; type: cell-based; conditions: human, six days
Method: Cytotoxicity assays were conducted with the same MT-2 cells, using methodology well known in the art. […] 50 μl of XTT reagent (1 mg/ml 2,3-bis[2-methoxy-4-nitro-5-sulfophenyl]-2H-tetrazolium-5-carboxanilide, 10 μg/ml phenazine methosulfate dissolved in phosphate buffered saline) was added to each well and incubated for 3 hours. Color formation by actively respiring cells was quantitated in a plate reader at 450 nm, and used to determine a CC50.

[4] = 2-week oral dose rat toxicology / TK study F; type: in vivo; conditions: for AUC(0-t): Sprague-Dawley, rat, plasma, oral, dosages 200 mg/kg/day, read-out: AUC0-24 h on Day 14
Method: In the 2-week oral rat study F (n=six/sex/group), Compound IVe was administered at daily doses of 15, 75, or 200 mg/kg. […] On Day 14, AUC0-24 h values were slightly higher in females (≦644 μg*hr/ml) compared to males (526.88 μg*hr/ml) at dosages 200 mg/kg/day. The oral (PO) results from Study F are in Table 5.

[5] = molecular target: T1, alkaline phosphatase (human placenta, Sigma) (Homo sapiens, UniProt P05187); assay: In vitro conversion in alkaline phosphatase (Table 1, note 1); type: in vitro ADME; conditions: ~0.2 mM prodrug, ~1.4 unit ALP, pH 8 Tris buffer; full wording: Complete and rapid conversion to parent without any intermediate formation
T1 construct: Qualitative in vitro studies using human placental alkaline phosphatase; purchased Sigma; host or cells: human placenta (as the result head says)
T1 sequence (P05187 23-506 limits assumed): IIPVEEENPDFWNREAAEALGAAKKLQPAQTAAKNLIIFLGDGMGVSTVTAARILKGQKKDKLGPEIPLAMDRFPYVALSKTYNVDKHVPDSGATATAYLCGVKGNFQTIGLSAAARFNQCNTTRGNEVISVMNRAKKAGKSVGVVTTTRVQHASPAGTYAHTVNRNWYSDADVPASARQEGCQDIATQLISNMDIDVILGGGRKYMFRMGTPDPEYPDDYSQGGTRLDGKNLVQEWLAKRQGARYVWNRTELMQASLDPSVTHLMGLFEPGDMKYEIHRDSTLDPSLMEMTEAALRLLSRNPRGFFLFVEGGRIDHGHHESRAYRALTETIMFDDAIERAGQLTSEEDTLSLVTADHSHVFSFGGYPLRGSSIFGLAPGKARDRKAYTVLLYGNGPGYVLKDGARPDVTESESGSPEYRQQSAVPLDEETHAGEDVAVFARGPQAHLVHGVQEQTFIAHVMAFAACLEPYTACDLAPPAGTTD

[6] = IV and oral rat PK (MAP) studies A, B, C of phosphate prodrugs and parent studies A1, B1, C1; type: in vivo, Sprague-Dawley rats; conditions: for In vivo conversion in Rats-iv (note 2) MAP study: dose equiv. to 1 mg/Kg of the parent; for In vivo conversion in Rats-iv (note 2) MAP study / In vivo conversion in Rats-oral (note 2) MAP study: full wording: Rapid generation of parent in plasma; for clearance / Vd / half-life: male, Sprague-Dawley, rat, 1 mg/kg; for clearance / Vd / half-life / AUC 0-24 h (μM * hr) / Cmax (uM) / Cp @ 24 hr p.o. (nM): rats; for clearance / Vd: prodrug IV equivalent to 1 mpk of parent; for clearance: read-out: CL i.v.; for Vd: read-out: Vss i.v.; for half-life: after IV prodrug dosing equivalent to 1 mpk of parent, read-out: T1/2 i.v. (converted); for half-life / AUC 0-24 h (μM * hr) / Cmax (uM) / Cp @ 24 hr p.o. (nM): analyte = label; for In vivo conversion in Rats-oral (note 2) MAP study: dose equiv. to 5 mg/Kg of the parent; for AUC 0-24 h (μM * hr) / Cmax (uM) / Cp @ 24 hr p.o. (nM): after PO prodrug dosing equivalent to 5 mpk of parent
Method: The rats for oral dosing studies were fasted overnight. […] The dosing solutions of all three prodrugs for both IV and oral administration were prepared in 100% normal saline at 1 mg/mL (dosing solution concentrations were parent compound equivalent). Plasma samples were collected in EDTA vacutainers over 24 hrs, and analyzed by LC/MS/MS for both the prodrugs and parent molecules. Pharmacokinetic analysis was performed on Kinetica™.
Plasma and tissue samples were collected and stored at −20° C. until analysis. […] Rats were fasted overnight in PO studies. […] In the PO studies, rats (n=3) received PO doses of 5 and 100 mg/kg.
Male Sprague-Dawley rats (300-350 g, Hilltop Lab Animals, Inc., Scottdale, Pa.) with cannulas implanted in the jugular vein and/or bile duct were used. The rats were fasted overnight in the PO pharmacokinetic studies. Blood samples of 0.3 ml were collected from the jugular vein in EDTA-containing microtainer tubes (Becton Dickinson, Franklin Lakes, N.J.), and centrifuged to separate plasma.

[7] = physchem; conditions: pH 6.5, aqueous buffer

SMILES: COc1cnc(-n2cnc(C)n2)c2c1c(C(=O)C(=O)N1CCC(=C(C#N)c3ccccn3)CC1)cn2COP(=O)(OC(C)(C)C)OC(C)(C)C [IIe]
- F (%) (calc on historical IV data for parent) ([1]; rat, diester prodrug IIe PO 7.0 mg/kg (IVe eq), PK of IVe only): 7.7%
- Cp @ 24 hr p.o. ([1]; rat, diester prodrug IIe PO 7.0 mg/kg (IVe eq), PK of IVe only, 1/3 rats): 8.17 (1/3 rats) nM

SMILES: COc1cnc(-n2ccc(C)n2)c2[nH]cc(C(=O)C(=O)N3CCN(C(=O)c4ccccc4)[C@H](C)C3)c12 [IVd]
- EC50 [2]: < 1 µM
- CC50 at 6 days [3]: > 10 µM

SMILES: COc1cnc(-n2cnc(C)n2)c2[nH]cc(C(=O)C(=O)N3CCC(=C(C#N)c4ccccn4)CC3)c12 [IVe, 2-(1-(2-(4-methoxy-7-(3-methyl-1H-1,2,4-triazol-1-yl)-1H-pyrrolo[2,3-c]pyridin-3-yl)-2-oxoacetyl)piperidin-4-ylidene)-2-(pyridin-2-yl)acetonitrile]
- AUC(0-t) ([4]; female, females): ≤ 644 µg·h/mL
- AUC(0-t) ([4]; male, males): 527 µg·h/mL
- autoinduction or accumulation ([4]; toxicokinetic evaluations on days 1 and 14): no evidence of autoinduction or accumulation
- parent molecule in plasma following PO dosing of prodrug [1]: detected in the plasma

SMILES: O=C(C(=O)N1CCN(c2ncnc3ccccc23)CC1)c1c[nH]c2c(-n3ccnn3)ncc(F)c12 [IVf]
- parent molecule in plasma following PO dosing of prodrug [1]: detected in the plasma

SMILES: COc1cnc(OC)c2c1c(C(=O)C(=O)N1CCN(C(=O)c3ccccc3)CC1)cn2COP(=O)(O)O [Ia]
- In vitro conversion in Alkaline phosphatase (note 1) [5]: Complete
- In vivo conversion in Rats-iv (note 2) MAP study [6]: Rapid
- clearance ([6]; plasma): 16 ± 0.95 mL/min/kg
- Vd ([6]; plasma): 0.095 ± 0.001 L/kg
- half-life ([6]; plasma, iv): 8.4 ± 1.2 min
- In vivo conversion in Rats-oral (note 2) MAP study [6]: Rapid
- AUC 0-24 h (μM * hr) [6]: LLQ
- Cmax (uM) [6]: LLQ
- Cp @ 24 hr p.o. (nM) [6]: LLQ
- solubility [7]: > 18000 µg/mL

SMILES: O=C(C(=O)N1CCN(C(=O)c2ccccc2)CC1)c1cn(COP(=O)([O-])[O-])c2c(-n3ccnn3)ncc(F)c12.[Na+].[Na+] [Ib]
- In vitro conversion in Alkaline phosphatase (note 1) [5]: Complete
- In vivo conversion in Rats-iv (note 2) MAP study [6]: Rapid
- half-life ([6]; in vivo): 108 ± 72 min
- clearance ([6]; in vivo): 46 ± 10 mL/min/kg
- Vd ([6]; in vivo): 0.97 ± 0.47 L/kg
- In vivo conversion in Rats-oral (note 2) MAP study [6]: Rapid
- AUC 0-24 h (μM * hr) [6]: LLQ
- Cmax (uM) [6]: LLQ
- Cp @ 24 hr p.o. (nM) [6]: LLQ
- solubility [7]: > 8000 µg/mL

SMILES: COc1cnc(-n2cnc(C)n2)c2c1c(C(=O)C(=O)N1CCN(C(=O)c3ccccc3)CC1)cn2COP(=O)(O)O [Ic]
- In vitro conversion in Alkaline phosphatase (note 1) [5]: Complete
- solubility [7]: 1000 µg/mL (≈ 1710 µM)
